For the test, the system named is modified version of the GPR119 receptor (94% identity to human receptor). Description: cAMP production assay (LANCE cAMP kit, TR-FRET) in HEK-293 cells. In kind it is cell-based. The note with it: for cAMP production in HEK-293 cells: HEK-293 cells stably expressing modified GPR119, test compounds 0.2 nM to 10 μM, one-hour incubation; for Fold over baseline: increase in cAMP relative to basal levels, agonist activity if 1.5-fold or greater. How it is done: The assay utilized HEK-293 cells that stably express a modified version of the GPR119 receptor (94% identity to human receptor), under the control of a CMV promoter containing a tet-on element for tetracycline-inducible expression. GPR119 agonist-induced cyclic AMP (cAMP) production was measured in this cell line using the LANCE cAMP kit (Perkin Elmer, Waltham, Mass.). To generate a working stock of cells for the assay, cells were treated overnight with 1 μg/mL doxycycline at 37° C. in the presence of 5% CO2 to induce receptor expression. Cells were then harvested by enzymatic dissociation with 0.05% trypsin, resuspended in freezing medium (DMEM growth medium with 10% each of fetal bovine serum and DMSO), aliquoted and frozen at −80° C. On the day of the assay, frozen cells were thawed, washed 1× in PBS and resuspended in Hank's buffered salt solution (HBSS) containing 5 mM HEPES, 0.1% BSA and Alexa Fluor 647-conjugated anti-cAMP antibody (diluted 1:100). The cell suspension was then transferred to a Proxiplate Plus white 384-well assay plate (Perkin-Elmer) at 2000 cells/well. Test compounds at final concentrations ranging from 0.2 nM to 10 μM were added to the assay plate, followed by a one-hour incubation at ambient temperature (volume=10 μL/well). DMSO concentration was held constant at 0.5%. After incubation with test compounds, 10 μL, of a detergent buffer containing a biotinylated cAMP/Europium-conjugated streptavidin complex (Europium-labeled cAMP tracer) were added to each well on the assay plate, followed by a 2-hour incubation at ambient temperature. During this incubation cAMP released from lysed cells competes with the Europium-labeled cAMP tracer for binding to the Alexa Fluor 647-conjugated antibody. […] Cellular cAMP levels were then determined by interpolation of raw signal data using a cAMP standard curve. Compounds were determined to have agonist activity if they stimulated a 1.5-fold or greater increase in cAMP relative to basal levels.
(In general: Cyclic AMP is a second messenger, typically raised through Gs and lowered through Gi signalling.)

The values below come from patent publication US20140256756A1, “PIPERIDINYL-SUBSTITUTED LACTAMS AS GPR119 MODULATORS” (Array BioPharma Inc., priority 2011, published 2014).

Where a name gives a salt, the structure may show the parent alone.

On to `CS(=O)(=O)c1ccc(N[C@H]2CCN(C3CCN(c4nc(C5CC5)ns4)CC3)C2=O)c(F)c1` [Example 23, (S)-1-(1-(3-cyclopropyl-1,2,4-thiadiazol-5-yl)piperidin-4-yl)-3-(2-fluoro-4-(methyl-sulfonyl)phenylamino) pyrrolidin-2-one], for which the “cAMP production in HEK-293 cells” value was determined as 11.9 nmol and the Fold over baseline is 2.9.
The corresponding values for `CS(=O)(=O)c1ccc(N[C@H]2CCN(C3CCN(c4nc(-c5ccccc5)ns4)CC3)C2=O)c(F)c1` [Example 24, (S)-3-(2-fluoro-4-(methylsulfonyl)phenylamino)-1-(1-(3-phenyl-1,2,4-thiadiazol-5-yl)piperidin-4-yl)pyrrolidin-2-one] are 9.7 nmol and 2.6.
In the case of `CS(=O)(=O)c1ccc(N[C@H]2CCN(C3CCN(c4nc([C@H](O)CO)ns4)CC3)C2=O)c(F)c1` [Example 25, (S)-1-(1-(3-((S)-1,2-dihydroxyethyl)-1,2,4-thiadiazol-5-yl)piperidin-4-yl)-3-(2-fluoro-4-(methylsulfonyl)phenylamino)pyrrolidin-2-one], the “cAMP production in HEK-293 cells” value amounted to 8.3 nmol and the Fold over baseline stood at 2.1.
For the compound `CC(C)c1nsc(N2CCC(N3CC[C@H](N(C)c4cc(F)c(S(C)(=O)=O)cc4F)C3=O)CC2)n1` [Example 26, (S)-3-((2,5-Difluoro-4-(methylsulfonyl)phenyl)(methyl)amino)-1-(1-(3-isopropyl-1,2,4-thiadiazol-5-yl)piperidin-4-yl)pyrrolidin-2-one], the “cAMP production in HEK-293 cells” value is 17.2 nmol and the Fold over baseline is 3.9.
The corresponding values for `CC(C)c1nsc(N2CCC(N3CCC[C@H](Nc4ccc(S(C)(=O)=O)cc4F)C3=O)CC2)n1` [Example 27, (S)-3-(2-fluoro-4-(methylsulfonyl)phenylamino)-1′-(3-isopropyl-1,2,4-thiadiazol-5-yl)-[1,4′-bipiperidin]-2-one] are 17.5 nmol and 3.0.
The corresponding values for `CC(C)Cc1nsc(N2CCC(N3CCC[C@H](Nc4ccc(S(C)(=O)=O)cc4F)C3=O)CC2)n1` [Example 28, (S)-3-(2-fluoro-4-(methylsulfonyl)phenylamino)-1′-(3-isobutyl-1,2,4-thiadiazol-5-yl)-[1,4′-bipiperidin]-2-one] are 11.6 nmol and 2.3.
In the same order, the values of `CS(=O)(=O)c1ccc(N[C@H]2CCCN(C3CCN(c4nc(-c5ccccc5)ns4)CC3)C2=O)c(F)c1` [Example 29, (S)-3-(2-fluoro-4-(methylsulfonyl)phenylamino)-1′-(3-phenyl-1,2,4-thiadiazol-5-yl)-[1,4′-bipiperidin]-2-one] are 7.3 nmol and 2.2.
Take `CC(C)(C)c1nsc(N2CCC(N3CCC[C@H](Nc4ccc(S(C)(=O)=O)cc4F)C3=O)CC2)n1` [Example 30, (S)-1′-(3-tert-butyl-1,2,4-thiadiazol-5-yl)-3-(2-fluoro-4-(methylsulfonyl)phenylamino)-[1,4′-bipiperidin]-2-one]: the “cAMP production in HEK-293 cells” value is 13.9 nmol and the Fold over baseline is 2.8.
On to `CC(C)(C)c1nsc(N2CCC(N3CCC[C@H](Nc4c(F)cc(S(C)(=O)=O)cc4F)C3=O)CC2)n1` [Example 31], for which the “cAMP production in HEK-293 cells” value was determined as 7.6 nmol and the Fold over baseline is recorded as 1.9.
On to `CSc1ccc(OC2CCN(C3CCN(c4nc(C(C)C)ns4)CC3)C2=O)cc1` (centres unmarked) [Example 32, 1-(1-(3-Isopropyl-1,2,4-thiadiazol-5-yl)piperidin-4-yl)-3-(4-(methylthio)phenoxy)pyrrolidin-2-one], for which the “cAMP production in HEK-293 cells” value was determined as 17.8 nmol and the Fold over baseline came to 2.7.
In the same order, the values of `CC(C)c1nsc(N2CCC(N3CCC(Oc4ccc(Br)cc4F)C3=O)CC2)n1` (centres unmarked) [Example 33, 3-(4-bromo-2-fluorophenoxy)-1-(1-(3-isopropyl-1,2,4-thiadiazol-5-yl)piperidin-4-yl)pyrrolidin-2-one] are 16.9 nmol and 2.7.
`CC(C)(C)c1nsc(N2CCC(N3CC[C@H](Oc4cc(F)c(S(C)(=O)=O)cc4F)C3=O)CC2)n1` [Example 34, (S)-1-(1-(3-tert-butyl-1,2,4-thiadiazol-5-yl)piperidin-4-yl)-3-(2,5-difluoro-4-(methylsulfonyl)phenoxy)pyrrolidin-2-one]: the “cAMP production in HEK-293 cells” value was found to be 29.2 nmol and the Fold over baseline is listed as 4.5.
As for `CC(C)(C)c1nsc(N2CCC(N3CC[C@H](Oc4ccc(S(C)(=O)=O)cc4F)C3=O)CC2)n1` [Example 35, (S)-1-(1-(3-tert-butyl-1,2,4-thiadiazol-5-yl)piperidin-4-yl)-3-(2-fluoro-4-(methylsulfonyl)phenoxy)pyrrolidin-2-one], the “cAMP production in HEK-293 cells” value is 26.1 nmol and the Fold over baseline worked out at 3.7.
In the same order, the values of `CC(C)(C)c1nsc(N2CCC(N3CC[C@H](Oc4c(F)cc(S(C)(=O)=O)cc4F)C3=O)CC2)n1` [Example 36, (S)-1-(1-(3-tert-butyl-1,2,4-thiadiazol-5-yl)piperidin-4-yl)-3-(2,6-difluoro-4-(methylsulfonyl)phenoxy) pyrrolidin-2-one] are 23.2 nmol and 4.1.
In the same order, the values of `CC(C)(C)c1nsc(N2CCC(N3CC[C@H](Nc4ccc(S(C)(=O)=O)cc4F)C3=O)CC2)n1` [Example 37, (S)-1-(1-(3-tert-butyl-1,2,4-thiadiazol-5-yl)piperidin-4-yl)-3-(2-fluoro-4-(methylsulfonyl)phenyl-amino)pyrrolidin-2-one] are 20.9 nmol and 3.2.
In the same order, the values of `COC(C)(C)c1nsc(N2CCC(N3CC[C@H](Oc4ccc(S(C)(=O)=O)cc4F)C3=O)CC2)n1` [Example 38, (S)-3-(2-fluoro-4-(methylsulfonyl)phenoxy)-1-(1-(3-(2-methoxypropan-2-yl)-1,2,4-thiadiazol-5-yl)piperidin-4-yl)pyrrolidin-2-one] are 42.1 nmol and 6.6.
With `COC(C)(C)c1nsc(N2CCC(N3CC[C@H](Oc4cc(F)c(S(C)(=O)=O)cc4F)C3=O)CC2)n1` [Example 39, (S)-3-(2,5-difluoro-4-(methylsulfonyl)phenoxy)-1-(1-(3-(2-methoxypropan-2-yl)-1,2,4-thiadiazol-5-yl)piperidin-4-yl)pyrrolidin-2-one], the “cAMP production in HEK-293 cells” value turned out to be 22.4 nmol and the Fold over baseline was 3.7.
The corresponding values for `COC(C)(C)c1nsc(N2CCC(N3CC[C@H](Oc4c(F)cc(S(C)(=O)=O)cc4F)C3=O)CC2)n1` [Example 40, (S)-3-(2,6-difluoro-4-(methylsulfonyl)phenoxy)-1-(1-(3-(2-methoxypropan-2-yl)-1,2,4-thiadiazol-5-yl)piperidin-4-yl)pyrrolidin-2-one] are 21.1 nmol and 3.9.
In the same order, the values of `COC(C)(C)c1nsc(N2CCC(N3CC[C@H](Nc4ccc(S(C)(=O)=O)cc4F)C3=O)CC2)n1` [Example 41, (S)-3-(2-fluoro-4-(methylsulfonyl)phenyl-amino)-1-(1-(3-(2-methoxypropan-2-yl)-1,2,4-thiadiazol-5-yl)piperidin-4-yl)pyrrolidin-2-one] are 8.1 nmol and 2.0.
On to `CS(=O)(=O)c1ccc(O[C@H]2CCN(C3CCN(c4nc(-n5cccn5)ns4)CC3)C2=O)c(F)c1` [Example 42, (S)-1-(1-(3-(1H-pyrazol-1-yl)-1,2,4-thiadiazol-5-yl)piperidin-4-yl)-3-(2-fluoro-4-(methylsulfonyl)phenoxy)pyrrolidin-2-one], for which the “cAMP production in HEK-293 cells” value was 12.0 nmol and the Fold over baseline is recorded as 2.5.
The corresponding values for `Cc1nnc(-c2ccc(O[C@H]3CCN(C4CCN(c5nc(C(C)C)ns5)CC4)C3=O)c(F)c2)o1` [Example 43, (S)-3-(2-fluoro-4-(5-methyl-1,3,4-oxadiazol-2-yl)phenoxy)-1-(1-(3-isopropyl-1,2,4-thiadiazol-5-yl)piperidin-4-yl)pyrrolidin-2-one] are 29.4 nmol and 7.4.
Turning to `CC(C)c1nsc(N2CCC(N3CCC(Oc4ccc(S(=O)(=O)CC5CC5)cc4F)C3=O)CC2)n1` (centres unmarked) [Example 44, 3-(4-(Cyclopropylmethylsulfonyl)-2-fluorophenoxy)-1-(1-(3-isopropyl-1,2,4-thiadiazol-5-yl)piperidin-4-yl)pyrrolidin-2-one trifluoroacetate], the “cAMP production in HEK-293 cells” value was 23.8 nmol and the Fold over baseline is 3.4.
